The source of these data is patent US8580794B2 (AbbVie Inc., priority 2009, dated 2013).

This test addresses GST-Bc1-2 (Homo sapiens, UniProt P10415). Put plainly: Time Resolved-Fluorescence Resonance Energy Transfer (TR-FRET) Bcl-2 binding assay with F-Bak peptide probe. (TR-FRET usually uses a lanthanide donor and a delayed reading to cut background.)
Setting [1] is: GST-Bcl-2 1 nM, F-Bak probe 100 nM, Tb-anti-GST 1 nM, '<' = below limit of detection, read-out: TR-FRET Bcl-2 Binding Ki.
[2] abbreviates: Table 5, direct comparison Z=N vs Z=C analogs, read-out: Bcl-2 FRET ki.
[3] abbreviates: Table 4, selected compounds of Ser. No. 12/631,404, read-out: Bcl-2 FRET Ki.

Where two headings read alike, the source gives them in different places.

Sequence of GST-Bc1-2 (P10415 whole entry): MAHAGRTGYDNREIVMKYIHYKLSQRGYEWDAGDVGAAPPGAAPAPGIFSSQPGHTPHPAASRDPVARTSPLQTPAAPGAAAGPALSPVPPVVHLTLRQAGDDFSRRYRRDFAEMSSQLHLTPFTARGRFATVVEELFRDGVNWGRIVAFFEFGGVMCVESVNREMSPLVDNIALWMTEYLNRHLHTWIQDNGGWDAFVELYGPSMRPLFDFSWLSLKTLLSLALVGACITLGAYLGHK
Experimental: The samples are then mixed on a shaker for 1 minute and incubated for an additional 3 hours at room temperature. For each assay, the probe/antibody and protein/probe/antibody were included on each assay plate as negative and positive controls, respectively.
The samples were then mixed on a shaker for 1 minute and incubated for an additional 3 hours at room temperature. For each assay, the probe/antibody and protein/probe/antibody were included on each assay plate as negative and positive controls, respectively.

Broadly, the Ki is the equilibrium dissociation constant of an inhibitor or competing ligand from its target. Take `CC1(C)CCC(CN2CCN(c3ccc(C(=O)NS(=O)(=O)c4ccc(NC5CCN([C@H]6CCOC[C@H]6F)CC5)c([N+](=O)[O-])c4)c(Oc4cnc5[nH]ccc5c4)c3)CC2)=C(c2ccc(Cl)cc2)C1` (relative stereo) [Example 115, 4-(4-{[2-(4-chlorophenyl)-4,4-dimethylcyclohex-1-en-1-yl]methyl}piperazin-1-yl)-N-{[4-({1-[cis-3-fluorotetrahydro-2H-pyran-4-yl]piperidin-4-yl}amino)-3-nitrophenyl]sulfonyl}-2-(1H-pyrrolo[2,3-b]pyridin-5-yloxy)benzamide]: under setting [1], the Ki is less than 0.01 nM. Consider `CC1(C)CCC(CN2CCN(c3ccc(C(=O)NS(=O)(=O)c4ccc(OC[C@@H]5CN(C6COC6)C[C@H]5CF)c([N+](=O)[O-])c4)c(Oc4cnc5[nH]ccc5c4)c3)CC2)=C(c2ccc(Cl)cc2)C1` (relative stereo) [Example 137, 4-(4-{[2-(4-chlorophenyl)-4,4-dimethylcyclohex-1-en-1-yl]methyl}piperazin-1-yl)-N-[(4-{[trans-4-(fluoromethyl)-1-oxetan-3-ylpyrrolidin-3-yl]methoxy}-3-nitrophenyl)sulfonyl]-2-(1H-pyrrolo[2,3-b]pyridin-5-yloxy)benzamide], for which the Ki under setting [1] was less than 0.01 nM. With `O=C(NS(=O)(=O)c1ccc(NCC2CCOCC2)c([N+](=O)[O-])c1)c1ccc(N2CCN(Cc3ccccc3-c3ccc(Cl)cc3)CC2)cc1Oc1cnc2[nH]ccc2c1` [Example 1, 4-{4-[(4′-chloro-1,1′-biphenyl-2-yl)methyl]piperazin-1-yl}-N-({3-nitro-4-[(tetrahydro-2H-pyran-4-ylmethyl)amino]phenyl}sulfonyl)-2-(1H-pyrrolo[2,3-b]pyridin-5-yloxy)benzamide], the Ki was 0.225 nM under setting [1] and 0.225 nM under setting [2]. For `O=C(NS(=O)(=O)c1ccc(NCCCN2CCOCC2)c([N+](=O)[O-])c1)c1ccc(N2CCN(Cc3ccccc3-c3ccc(Cl)cc3)CC2)cc1Oc1cnc2[nH]ccc2c1` [Example 2, 4-{4-[(4′-chloro-1,1′-biphenyl-2-yl)methyl]piperazin-1-yl}-N-({4-[(3-morpholin-4-ylpropyl)amino]-3-nitrophenyl}sulfonyl)-2-(1H-pyrrolo[2,3-b]pyridin-5-yloxy)benzamide], the Ki reads like this: under setting [1], less than 0.01 nM; under setting [2], less than 0.01 nM.

As to `CC1(C)CCC(CN2CCN(c3ccc(C(=O)NS(=O)(=O)c4ccc(NC5CCN(C6CCOCC6)CC5)c([N+](=O)[O-])c4)c(Oc4cnc5[nH]ccc5c4)c3)CC2)=C(c2ccc(Cl)cc2)C1` [Example 3, 4-(4-{[2-(4-chlorophenyl)-4,4-dimethylcyclohex-1-en-1-yl]methyl}piperazin-1-yl)-N-({3-nitro-4-[(1-tetrahydro-2H-pyran-4-ylpiperidin-4-yl)amino]phenyl}sulfonyl)-2-(1H-pyrrolo[2,3-b]pyridin-5-yloxy)benzamide], the Ki is 0.013 nM under setting [1] and 0.013 nM under setting [2]. For the compound `CN1CCC(Nc2ccc(S(=O)(=O)NC(=O)c3ccc(N4CCN(CC5=C(c6ccc(Cl)cc6)CC(C)(C)CC5)CC4)cc3Oc3cccc4[nH]c5ccccc5c34)cc2[N+](=O)[O-])CC1` [Example 7, 2-(9H-carbazol-4-yloxy)-4-(4-{[2-(4-chlorophenyl)-4,4-dimethylcyclohex-1-en-1-yl]methyl}piperazin-1-yl)-N-({4-[(1-methylpiperidin-4-yl)amino]-3-nitrophenyl}sulfonyl)benzamide], the Ki under setting [1] was 4.92 nM. Turning to `CC1(C)CCC(CN2CCN(c3ccc(C(=O)NS(=O)(=O)c4ccc(NCCCN5CCCC5)c([N+](=O)[O-])c4)c(Oc4cccc5[nH]c6ccccc6c45)c3)CC2)=C(c2ccc(Cl)cc2)C1` [Example 8, 2-(9H-carbazol-4-yloxy)-4-(4-{[2-(4-chlorophenyl)-4,4-dimethylcyclohex-1-en-1-yl]methyl}piperazin-1-yl)-N-({3-nitro-4-[(3-pyrrolidin-1-ylpropyl)amino]phenyl}sulfonyl)benzamide], the Ki under setting [1] is 0.153 nM.

`CC1(C)CCC(CN2CCN(c3ccc(C(=O)NS(=O)(=O)c4ccc(NC[C@@H]5CCCOC5)c([N+](=O)[O-])c4)c(Oc4cnc5[nH]ccc5c4)c3)CC2)=C(c2ccc(Cl)cc2)C1` [Example 11, 4-(4-{[2-(4-chlorophenyl)-4,4-dimethylcyclohex-1-en-1-yl]methyl}piperazin-1-yl)-N-[(3-nitro-4-{[(3S)-tetrahydro-2H-pyran-3-ylmethyl]amino}phenyl)sulfonyl]-2-(1H-pyrrolo[2,3-b]pyridin-5-yloxy)benzamide]: the Ki by setting is: under setting [1], 0.016 nM; under setting [2], 0.016 nM. For the compound `CC1(C)CCC(CN2CCN(c3ccc(C(=O)NS(=O)(=O)c4ccc5ccccc5c4)c(Oc4cnc5[nH]ccc5c4)c3)CC2)=C(c2ccc(Cl)cc2)C1` [Example 14, 4-(4-{[2-(4-chlorophenyl)-4,4-dimethylcyclohex-1-en-1-yl]methyl}piperazin-1-yl)-N-(2-naphthylsulfonyl)-2-(1H-pyrrolo[2,3-b]pyridin-5-yloxy)benzamide], the Ki under setting [1] worked out at 2.8 nM. Turning to `COCCNc1ccc(S(=O)(=O)NC(=O)c2ccc(N3CCN(CC4=C(c5ccc(Cl)cc5)CC(C)(C)CC4)CC3)cc2Oc2cnc3[nH]ccc3c2)cc1S(=O)(=O)C(F)(F)F` [Example 16, 4-(4-{[2-(4-chlorophenyl)-4,4-dimethylcyclohex-1-en-1-yl]methyl}piperazin-1-yl)-N-({4-[(2-methoxyethyl)amino]-3-[(trifluoromethyl)sulfonyl]phenyl}sulfonyl)-2-(1H-pyrrolo[2,3-b]pyridin-5-yloxy)benzamide], the Ki was determined as 0.219 nM under setting [1] and 0.219 nM under setting [2]. With `CC1(C)CCC(CN2CCN(c3ccc(C(=O)NS(=O)(=O)c4ccc(NCC5CCOCC5)c(S(=O)(=O)C(F)(F)F)c4)c(Oc4cnc5[nH]ccc5c4)c3)CC2)=C(c2ccc(Cl)cc2)C1` [Example 17, 4-(4-{[2-(4-chlorophenyl)-4,4-dimethylcyclohex-1-en-1-yl]methyl}piperazin-1-yl)-2-(1H-pyrrolo[2,3-b]pyridin-5-yloxy)-N-({4-[(tetrahydro-2H-pyran-4-ylmethyl)amino]-3-[(trifluoromethyl)sulfonyl]phenyl}sulfonyl)benzamide], the Ki was determined as 0.09 nM under setting [1] and 0.09 nM under setting [2]. As for `CC1(C)CCC(CN2CCN(c3ccc(C(=O)NS(=O)(=O)c4ccc(NCC5CCOCC5)c([N+](=O)[O-])c4)c(Oc4ccc5[nH]ccc5c4)c3)CC2)=C(c2ccc(Cl)cc2)C1` [Example 18, 4-(4-{[2-(4-chlorophenyl)-4,4-dimethylcyclohex-1-en-1-yl]methyl}piperazin-1-yl)-2-(1H-indol-5-yloxy)-N-({3-nitro-4-[(tetrahydro-2H-pyran-4-ylmethyl)amino]phenyl}sulfonyl)benzamide], the Ki is 0.017 nM under setting [1] and 0.017 nM under setting [2].

Consider `CC1(C)CCC(CN2CCN(c3ccc(C(=O)NS(=O)(=O)c4ccc(N[C@H]5CC[C@H](N6CCOCC6)CC5)c([N+](=O)[O-])c4)c(Oc4ccc5[nH]ccc5c4)c3)CC2)=C(c2ccc(Cl)cc2)C1` [Example 19, Trans-4-(4-{[2-(4-chlorophenyl)-4,4-dimethylcyclohex-1-en-1-yl]methyl}piperazin-1-yl)-2-(1H-indol-5-yloxy)-N-({4-[(4-morpholin-4-ylcyclohexyl)amino]-3-nitrophenyl}sulfonyl)benzamide], for which the Ki amounted to 0.226 nM under setting [1], 0.226 nM under setting [3] and 0.226 nM under setting [2]. As for `COCCNc1ccc(S(=O)(=O)NC(=O)c2ccc(N3CCN(CC4=C(c5ccc(Cl)cc5)CC(C)(C)CC4)CC3)cc2Oc2ccc3[nH]ccc3c2)cc1[N+](=O)[O-]` [Example 20, 4-(4-{[2-(4-chlorophenyl)-4,4-dimethylcyclohex-1-en-1-yl]methyl}piperazin-1-yl)-2-(1H-indol-5-yloxy)-N-({4-[(2-methoxyethyl)amino]-3-nitrophenyl}sulfonyl)benzamide], the Ki turned out to be 0.181 nM under setting [1], 0.181 nM under setting [3] and 0.181 nM under setting [2]. As for `CC1(C)CC(c2ccc(Cl)cc2)=C(CN2CCN(c3ccc(C(=O)NS(=O)(=O)c4ccc(NCC5CCOCC5)c([N+](=O)[O-])c4)c(Oc4ccc5[nH]ccc5c4)c3)CC2)CO1` [Example 23, 4-(4-{[4-(4-chlorophenyl)-6,6-dimethyl-5,6-dihydro-2H-pyran-3-yl]methyl}piperazin-1-yl)-2-(1H-indol-5-yloxy)-N-({3-nitro-4-[(tetrahydro-2H-pyran-4-ylmethyl)amino]phenyl}sulfonyl)benzamide], the Ki under setting [1] turned out to be 0.083 nM, the inhibition constant Ki under setting [3] was found to be 0.083 nM and the Ki under setting [2] turned out to be 0.083 nM.

With `CC1(C)CCC(CN2CCN(c3ccc(C(=O)NS(=O)(=O)c4ccc(OCC5CCOCC5)c([N+](=O)[O-])c4)c(Oc4cnc5[nH]ccc5c4)c3)CC2)=C(c2ccc(Cl)cc2)C1` [Example 24, 4-(4-{[2-(4-chlorophenyl)-4,4-dimethylcyclohex-1-en-1-yl]methyl}piperazin-1-yl)-N-{[3-nitro-4-(tetrahydro-2H-pyran-4-ylmethoxy)phenyl]sulfonyl}-2-(1H-pyrrolo[2,3-b]pyridin-5-yloxy)benzamide], the Ki under setting [1] was less than 0.01 nM. `CC1(C)CCC(CN2CCN(c3ccc(C(=O)NS(=O)(=O)c4ccc(NCC5COCCO5)c([N+](=O)[O-])c4)c(Oc4cnc5[nH]ccc5c4)c3)CC2)=C(c2ccc(Cl)cc2)C1` (stereo not shown) [Example 25, 4-(4-{[2-(4-chlorophenyl)-4,4-dimethylcyclohex-1-en-1-yl]methyl}piperazin-1-yl)-N-({4-[(1,4-dioxan-2-ylmethyl)amino]-3-nitrophenyl}sulfonyl)-2-(1H-pyrrolo[2,3-b]pyridin-5-yloxy)benzamide]: under setting [1], the Ki is less than 0.01 nM.

On to `CC1(C)CCC(CN2CCN(c3ccc(C(=O)NS(=O)(=O)c4ccc(NCC(F)(F)F)c([N+](=O)[O-])c4)c(Oc4cnc5[nH]ccc5c4)c3)CC2)=C(c2ccc(Cl)cc2)C1` [Example 26, 4-(4-{[2-(4-chlorophenyl)-4,4-dimethylcyclohex-1-en-1-yl]methyl}piperazin-1-yl)-N-({3-nitro-4-[(2,2,2-trifluoroethyl)amino]phenyl}sulfonyl)-2-(1H-pyrrolo[2,3-b]pyridin-5-yloxy)benzamide], for which the Ki under setting [1] came to 0.011 nM.
